Test results as given in patent US6663862B1, “Reagents for detection and purification of antibody fragments” (Duke University, priority 1999, dated 2003).
Residue numbers refer to the chain shown, from its start. Marks after values point to notes of the source that are not given here.

Tested on: Fc fragment of human IgG
Assay: Binding of B1 mutants to human IgG Fc fragment (acrylodan fluorescence titration; competition assay for weak binders)
Conditions: for DDG = −RTIn (Kd wild type/Kd mutant): T = 298K, relative to Q32C wild-type construct; for fold increase in Kd: hFc binding, relative to wild-type (Q32C) B1; for Kd: hFc, Q32C background, 20 mM KPO4 (pH 6.0), 25° C., direct titration, or competition with labeled wild-type B1-hFc complex for weak binders
Text: Fluorophore coupling and iodoacetamide blocking. All of the above mutations were constructed into the Q32C background to allow site-specific covalent coupling with acrylodan for fluorescent binding assays as described by Sloan, D. J. and Hellinca, H. W. (1998) Prot. Eng. 11:819-823. In competitive binding experiments between fluorescently labeled wild-type B1 and unlabeled mutants, the free thiol in the mutant protein was blocked by reaction with iodoacetamide.
Binding of B1 mutants to human IgG Fc fragment. The binding constants for each of the alanine mutants were measured as an increase in fluorescence by direct titration of Fc fragment of human IgG (ICN Biomedicals, Costa Mesa, Calif.) into a solution containing 250nM acrylodan-conjugated B1 domain mutant in 20 mM KPO4 (pH 6.0) at 25° C. (excitation 392 nm; emission 500 nm; slit widths of 4 and 16 nm respectively). After each addition of protein, the solution was allowed to equilibrate for 30 seconds before the final fluorescence value was recorded.
Each titration comprised 20 points and was performed in triplicate. The data were fit to a binding isotherm that described a single binding site and takes into account all of the species present (Segel, I. H. (1975) Enzyme Kinetics, John Wiley & Sons, New York, N.Y.): [formula]
where F is the measured fluorescence with FO and Fmax representing the initial and final values, respectively. [B1]t and [hFc]t are the concentrations of B1 and hFc respectively, and the Kd is the disassociation constant. This equation is referred to herein as “Equation 1”.
The binding constants of weak binders (greater than 50-fold increases in Kd) were measured in a competition assay with a pre-formed complex (250 nM) of wild type Q32C construct conjugated to acrylodan and hFc. Binding constants were determined by measuring the decrease in fluorescence of the complex by the addition of iodoacetamide blocked mutant B1 domains. From these competition binding curves the Kd for each of the mutant B1 domains was calculated from the binding isotherm (Fierke, C. A. et al. (1991) Biochemistry 30:11054-11063): [formula]
where F is the measured fluorescence with Fo and Ff representing the initial and final values respectively. [B1wt] and [B1mut] are the concentrations of B1 wild type and mutant respectively, and the Kd is the disassociation constant of the mutant or wild type. This Equation is referred to herein as “Equation 2”.
Binding studies. The interaction of the mutant B1 domain with the hFc was measured using a fluorescence method described by Sloan, D. J. and Hellinga, H. W. (1998) Prot. Eng. 11:819-823, which relies on the attachment of an environmentally sensitive fluorophore placed at the rim of the binding site in a location such that its fluorescence changes upon formation of the complex by virtue of alterations in conformational degrees of freedom and solvent accessibility, without adversely affecting the binding constant. Binding constants for hFc were determined in a direct titration experiment in which purified hFc was added to a solution of a Q32C B1 mutant to which the fluorophore acrylodan was covalently coupled at position 32C (FIG. 2A). The binding constants for all the B1 mutants were determined in the Q32C background (Table 4).
This approach was used to avoid having to use large quantities of pure hFc.

**Q.** How did the “DDG = −RTIn (Kd wild type/Kd mutant)” value turn out when “6: B1 domain of protein G, N35A mutant in Q32C background [Example 6]” was run?
**A.** 2.4 kcal/mol

**Q.** And the “fold increase in Kd” value?
**A.** 50 fold

**Q.** What about the Kd of the same substance?
**A.** 13 µM

**Q.** Which results are given for “9: B1 domain of protein G, W43A mutant in Q32C background [Example 9]”?
**A.** DDG = −RTIn (Kd wild type/Kd mutant): 3.8 kcal/mol; fold increase in Kd: 580 fold; Kd: 140 µM

**Q.** For “5: B1 domain of protein G, K31A mutant in Q32C background [Example 5]”, which “DDG = −RTIn (Kd wild type/Kd mutant)” value is on record?
**A.** 3.5 kcal/mol

**Q.** And the “fold increase in Kd” value?
**A.** 350 fold

**Q.** And the Kd?
**A.** 85 µM

**Q.** How did the “DDG = −RTIn (Kd wild type/Kd mutant)” value turn out when “2: B1 domain of protein G, T25A mutant in Q32C background [Example 2]” was run?
**A.** 0.24 kcal/mol

**Q.** And the Kd?
**A.** 0.36 µM

**Q.** How did the “DDG = −RTIn (Kd wild type/Kd mutant)” value turn out when “3: B1 domain of protein G, E27A mutant in Q32C background [Example 3]” was run?
**A.** >4.9^f kcal/mole

**Q.** And the “fold increase in Kd” value?
**A.** > 4000 fold

**Q.** What about the Kd of the same substance?
**A.** > 1000 µM

**Q.** How did the “DDG = −RTIn (Kd wild type/Kd mutant)” value turn out when “4: B1 domain of protein G, K28A mutant in Q32C background [Example 4]” was run?
**A.** 1.3 kcal/mol

**Q.** What about the Kd of the same substance?
**A.** 2 µM

**Q.** Which “DDG = −RTIn (Kd wild type/Kd mutant)” value does the source give for “1: B1 domain of protein G with Q32C mutation and His tag; the wild-type construct relative to which all measurements are made [Example 1, reference compound]” here?
**A.** 0 kcal/mol

**Q.** What about the Kd of the same substance?
**A.** 0.24 µM

**Q.** Which results are given for “8: B1 domain of protein G, E42A mutant in Q32C background [Example 8]”?
**A.** DDG = −RTIn (Kd wild type/Kd mutant): 0.4 kcal/mol; Kd: 0.46 µM

**Q.** “10: B1 domain of protein G, T44/Y45A mutant in Q32C background [Example 10]” was tested. Which “DDG = −RTIn (Kd wild type/Kd mutant)” value did it give?
**A.** 2.0 kcal/mol

**Q.** What about the Kd of the same substance?
**A.** 6.5 µM

**Q.** With “7: B1 domain of protein G, D40A mutant in Q32C background [Example 7]” as the substance, how does the “DDG = −RTIn (Kd wild type/Kd mutant)” value read?
**A.** 0.3 kcal/mol

**Q.** And the Kd?
**A.** 0.38 µM
